Data on one compound can be found in US11076596B2, “Substituted trifluoromethyloxadiazoles for combating phytopathogenic fungi” (BASF SE, priority 2017, dated 2021).

Each structure is given as a SMILES string.

By melting point is commonly meant the temperature, or range, at which the solid turns liquid.

On to `CO/N=C1\CCCC1NC(=O)c1ccc(-c2noc(C(F)(F)F)n2)cc1` (stereo not shown) [Ex-1, N-[(2E)-2-methoxyiminocyclopentyl]-4-[5-(trifluoromethyl)-1,2,4-oxadiazol-3-yl]benzamide], for which the melting point is 175 °C.
